From patent US20190307726A1, “PHARMACEUTICAL FORMULATIONS” (Molecular Defenses Corporation, priority 2015, published 2019)

Key:
[1] = biological target: T1, recombinant rat TrxR (Rattus norvegicus, UniProt O89049); conditions: cited from earlier work
T1 sequence (O89049 1-499): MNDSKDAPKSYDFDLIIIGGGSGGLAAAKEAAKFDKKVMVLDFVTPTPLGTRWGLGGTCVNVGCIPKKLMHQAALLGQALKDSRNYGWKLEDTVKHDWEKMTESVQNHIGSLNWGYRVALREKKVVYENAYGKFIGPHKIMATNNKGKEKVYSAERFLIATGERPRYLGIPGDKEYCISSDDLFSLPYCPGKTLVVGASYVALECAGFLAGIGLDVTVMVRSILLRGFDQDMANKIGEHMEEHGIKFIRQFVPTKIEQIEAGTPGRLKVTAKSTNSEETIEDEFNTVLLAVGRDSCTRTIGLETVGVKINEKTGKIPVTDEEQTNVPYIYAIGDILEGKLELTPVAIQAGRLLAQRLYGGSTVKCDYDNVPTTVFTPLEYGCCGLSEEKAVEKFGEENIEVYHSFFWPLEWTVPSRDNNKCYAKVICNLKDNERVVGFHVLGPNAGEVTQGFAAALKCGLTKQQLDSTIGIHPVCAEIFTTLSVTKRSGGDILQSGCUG

[2] = system: MDR Mycobacterium tuberculosis; assay: Sensitivity of Mycobacterium tuberculosis to ebselen, radiometric BACTEC 460 system; assay type: cell-based; conditions: medium with 5 g/l albumin; dependent upon albumin saturation
[3] = system: gshA- DHB4 E. coli; conditions: cited from earlier work
[4] = biological target: E. coli Trx (Escherichia coli, UniProt P0AA25); assay: Oxidation of reduced E. coli Trx-(SH)2, fluorescence spectroscopy; assay type: biochemical
E. coli Trx, sequence (P0AA25 whole entry): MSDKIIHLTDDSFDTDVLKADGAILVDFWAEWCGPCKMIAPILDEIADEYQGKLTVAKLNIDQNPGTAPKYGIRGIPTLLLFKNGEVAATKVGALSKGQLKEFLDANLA
Source text: Oxidation E. coli Trx-(SH)2 by ebselen derivatives. Oxidant property of benzisoselenazol-3(2H)-one derivatives on reduced E. coli Trx-(SH)2 were studied by fluorescence spectroscopy.

[5] = system: wild type DHB4 E. coli; conditions: cited from earlier work
[6] = system: Gor- DHB4 E. coli; conditions: cited from earlier work
[7] = system: Staphylococcus aureus; conditions: cited from earlier work
[8] = 30 μM compound, 0.5 mM GSH, 0.5 mM H2O2, NADPH consumption; cited from earlier work
[9] = system: HEK 293T cells; conditions: 24 h incubation, XTT; cited from earlier work
[10] = biological target: E. coli TrxR (Escherichia coli, UniProt P0A9P4); conditions: cited from earlier work
E. coli TrxR, sequence (P0A9P4 2-321): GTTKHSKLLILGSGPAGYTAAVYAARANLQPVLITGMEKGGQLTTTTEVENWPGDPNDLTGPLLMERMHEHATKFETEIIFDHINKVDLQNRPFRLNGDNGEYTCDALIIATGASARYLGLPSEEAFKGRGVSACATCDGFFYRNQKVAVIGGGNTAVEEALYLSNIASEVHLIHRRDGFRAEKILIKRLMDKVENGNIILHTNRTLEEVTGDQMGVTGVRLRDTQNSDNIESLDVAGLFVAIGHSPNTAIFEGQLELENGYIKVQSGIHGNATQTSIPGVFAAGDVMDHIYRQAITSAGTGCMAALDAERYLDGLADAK

Row | SMILES | MIC for gshA- DHB4 E. coli [3] | MIC for wild type DHB4 E. coli [5] | MIC for Gor- DHB4 E. coli [6] | also measured
1 | CC(C)(C)n1[se]c2ccccc2c1=O [EbSe 4] |  |  |  | inhibition of mammalian TrxR (in words) [1]: some activity to inhibit mammalian TrxR
2 | O=c1c2ccccc2[se]n1-c1ccccc1 [EbSe 6, 2-phenyl-1,2-benzisoselenazol-3(2H)-one] | 26 µM | 40 µM | 15 µM | MIC, Mycobacterium tuberculosis [2]: lower than 20 mg/I; second-order rate constant, reduction by reduced E. coli Trx [4]: 2e+07 M⁻¹ s⁻¹; difference in sensitivity, Staphyloccus aureus versus E. coli [7]: 100 fold; concentration inhibiting growth of methicillin resistant Staphylococcus aureus ([7]; methicillin resistant Staphylococcus aureus): 0.20 μg per ml; concentration inhibiting growth of Staphylococcus aureus 209P ([7]; strain 209P): 0.20 µg/mL
3 | O=c1c2ccccc2[se]n1-c1ccc(Cl)cc1 [EbSe 7] | 20 µM | 34 µM | 23 µM | 
4 | Cc1cc(Cl)ccc1-n1[se]c2ccccc2c1=O [EbSe 8] | 13 µM | 47 µM | 24 µM | 
5 | O=C(O)c1ccccc1-n1[se]c2ccccc2c1=O [EbSe 9] | 24 µM | 49 µM | 31 µM | 
6 | O=c1c2ccccc2[se]n1-c1ccc(Cl)cn1 [EbSe 11] | No Inh. | No Inh. | No Inh. | Relative GPx activity [8]: 0.87; IC50 [9]: > 160 µM; IC50 ([10]; read-out: IC50 for E. coli TrxR, 100 nM TrxR, 2 μM Trx, 240 μM NADPH, 1 mM DTNB): > 40 µM; Ki ([10]; read-out: Ki for E. coli TrxR, Dixon plot, 6 nM TrxR, Trx 1, 2 or 4 μM): 0.3 µM
7 | O=c1c2ccccc2[se]n1-c1ncccc1[N+](=O)[O-] [EbSe 12] | No Inh. | No Inh. | No Inh. | Relative GPx activity [8]: 0.93; IC50 [9]: 80 µM
8 | O=c1c2ccccc2[se]n1-c1ccncc1 [EbSe 13] | 21 µM | 45 µM | 24 µM | 
9 | O=c1c2ccccc2[se]n1CCn1[se]c2ccccc2c1=O [EbSe 14] | 23 µM | 23 µM | 19 µM | Relative GPx activity [8]: No activity
10 | O=c1c2ccccc2[se]n1CCCCCCn1[se]c2ccccc2c1=O [EbSe 16] | 20 µM | 20 µM | 35 µM | 
11 | CCOC(=O)c1cccnc1[Se]Nc1ccc(Cl)cn1 [compound 2] | No Inh. | No Inh. | No Inh. | 
12 | O=C(Nc1ccccc1)c1ccccc1[Se][Se]c1ccccc1C(=O)Nc1ccccc1 [ebselen diselenide] |  |  |  | second-order rate constant, reduction by reduced E. coli Trx [4]: 1700 M⁻¹ s⁻¹
